Experimental data as given in US3959356A, “Acetylene derivatives of amino acids” (Richardson-Merrell Inc., priority 1975, dated 1976).

What was measured:
[1] = loss of body weight in rats on daily dosing; format: in vivo; details: rats weighing 190 g; oral 25 mg/kg for four days (not a sedative dose); saline group 250 g
Description: For instance, rats weighing 190 g, when given for four days, oral doses of 25 mg/kg 4-amino-5-yne-hexanoic acid (which is not a sedative dose) weigh only 170 gms as compared to 250 g for animals of the same group which were given saline for the same period.

audiogenic seizures = experiment: protection against audiogenic seizures in DBA mice (method of Simler et al.); format: in vivo, mice of the DBA strain; details: 50-200 mg/kg
Excerpt: This ability is further shown by the protective effect of this treatment on audiogenic seizures in mice of the DBA strain measured by the general method described by Simler et al., Biochem. Pharmacol. 22, 1701 (1973), which is currently used to evidence antiepileptic activity.

[2] = test system: spontaneous motor activity; experiment: spontaneous motor activity in rodents (sedative properties), procedure of Dews; format: in vivo; details: 100-200 mg/kg, mice or rats
Description: The sedative properties of the compounds of this invention were determined by measuring spontaneous motor activity in rodents by the procedure described by P. Dews, Brit. J. Pharmacol. 8, 46 (1953).

reserpine ptosis = reserpine ptosis test of Rubin et al. (anti-depressant activity); format: in vivo; details: 50 mg/kg i.p. in mice one hour after 2 mg/kg i.v. reserpine; 3 hours after drug administration; control reserpinized animals 6.5
Description: The ability of the compounds of this invention at doses ranging from 50 to 200 mg/kg, to alleviate reserpine ptosis has been shown by the classical test of B. Rubin et al., J. Pharmacol. 120, 125 (1957), which is currently used to determine anti-depressant activity. For instance, in intraperitoneal injection 50 mg/kg of 4-amino-5-yne-hexanoic acid in mice, one hour after an intravenous injection of 2 mg/kg reserpine dissolved in 2% ascorbic acid/water results in a palpebral aperture of 5.5, 3 hours after drug administration as compared to 6.5 for control reserpinized animals.

[3] = test system: γ-aminobutyric acid transaminase; details: literature compounds; cited from earlier work
[4] = test system: brain level of γ-aminobutyric acid; details: literature compound, cited from earlier work

SMILES | body weight after treatment [1] | duration of protection against audiogenic seizures (audiogenic seizures) | protection against audiogenic seizures (audiogenic seizures; one hour after treatment) | time after administration at which decreased motor activity is still observable ([2]; i.v., i.p. or oral) | time at which decreased motor activity appears after administration ([2]; i.v., i.p. or oral) | effect on spontaneous motor activity ([2]; intravenous, intraperitoneal or oral route) | palpebral aperture (reserpine ptosis) | type of inhibition of γ-aminobutyric acid transaminase [3] | effect on brain levels of γ-aminobutyric acid [4] | duration of the effect on brain γ-aminobutyric acid ([4]; reversible effect)
C#CC(N)CCC(=O)O (racemic) [4-amino-5-yne-hexanoic acid, 4-Amino-5-yne-hexanoic acid] | 170 gms | over 16 hours | complete protection | ≥ 48 h | 1 h | substantially decreased motor activity | 5.5 | – | – | –
CCCC(CCC)C(=O)O [n-dipropylacetate] | – | – | – | – | – | – | – | competitively inhibiting | elevate brain levels of γ-aminobutyric acid | about 2 hours
NCC#CC(=O)O [4-aminotetrolic acid] | – | – | – | – | – | – | – | competitive reversible inhibitor | – | –
